In patent publication EP0258134A1, “Therapeutical compositions containing benzhydryl thiomethane derivatives” (LABORATOIRE L. LAFON, priority 1986, dated 1988):
Marks after values point to notes of the source that are not given here.

Legend:
Format in all cases: in vivo
souris [1] = test: Spontaneous motility (actimeter)
Protocol: Après avoir reçu le composé CRL 41 334, les souris sont placées en actimètre où leur motilité est enregistrée pendant 30 minutes.
Une demi-heure après avoir reçu le CRL 41 055, les souris (6 par dose, 12 témoins) sont placées en actimètre où leur motilité est enregistrée pendant 30 minutes.
Une demi-heure après avoir reçu le CRL 40 956, les souris (6 par dose, 12 témoins) sont placées en actimètre ou leur motilité est enregistrée pendant 30 minutes.

souris [2] = test: Electroshock; conditions: 128 mg/kg
Excerpt: (§1) Le test est pratiqué sur des lots de 10 souris, une demi-heure après l'administration du composé CRL 41 334.

souris [3] = test: Behavioural despair (forced immersion); conditions: souris, 8, 32 et 128 mg/kg
Excerpt: Une demi-heure après avoir reçu le composé CRL 41 334, des lots de 6 souris (mâles, CD₁, Charles River) sont placés dans un bécher rempli d'eau sur une hauteur de 6 cm. On note la durée totale d'immobilité entre la 2ème et la 6ème minutes suivant l'immersion.
Une demi-heure après avoir reçu le CRL 40 956, des lots de 10 souris (mâles CD₁ Charles River) sont plongées dans une enceinte réduite remplie d'eau sur une hauteur de 6 cm. On note la durée totale d'immobilité entre la 2ème et la 6ème minute suivant l'immersion.

souris [4] = test: Pretoxicity, i.p., 3 mice per dose
Protocol: (§2) Le composé CRL 41 334, en suspension dans une solution de gomme arabique, a été administré par voie intrapéritonéale sous un volume de 20 ml/kg chez la souris (mâle, NMRI, C.E.R. Janvier) et de 5 ml/kg chez le rat (mâle, CD₁; SPRAGUE DAWLEY, Charles River).
I - PRETOXICITE ( 3 souris par dose)
(§3) Le CRL 41 055, en suspension dans une solution de gomme arabique, a été administré par voie intrapéritonéale sous un volume de 20 ml/kg chez la souris (mâle, NMRI, Evic Ceba).
Prétoxicite (3 souris par dose)
(§4) Le CRL 40 956, en suspension dans une solution de gomme arabique a été administré par voie intrapéritonéale sous un volume de 20 ml/kg chez la souris (mâle, NMRI, Evic Céba) et de 5 ml/kg chez le rat (mâle, CD₁, Sprague Dawley, Charles River).
Prétoxicité ( 3 souris par dose)

rat = test: Search for stereotyped movements, rat
Excerpt: Des lots de 6 rats reçoivent une injection du composé CRL 41 334 ou d'amphétamine, puis sont immédiatement placés dans des boîtes de petites dimensions (20 x 10 x 10 cm) où leur comportement stéréotypeé est coté de 0 à 3 jusqu'à extinction de l'effet.

souris [5] = test: Global behaviour and reactivities, mouse, i.p.
Protocol: as §2
Des lots de 3 animaux sont observés avant, puis 15 mn, 30 mn, 1h, 2h, 3h et 24 heures après l'administration du composé CRL 41 334.
as §3, §4
Des lots de 3 animaux sont observés avant, puis 15 mn, 30 mn, 1 h, 2 h, 3 h et 24 heures après l'administration de CRL 40 956.

souris [6] = test: Four-plate test; conditions: half an hour after administration
Excerpt: as §1

[7] = tested on: souris femelles de souche OF₁; test: Delayed hypersensitivity reaction to sheep red blood cells; conditions: for Ind. Activité / % d'augmentation du coussinet (mm) m: voie orale; for % d'augmentation du coussinet (mm) m: trois jours avant immunisation
Excerpt: Selon la méthode de Miller, Lagrange et Mackaness ("Immunopotentiation with BCG II modulation of the response to sheep red blood cells", Journal of the National Cancer Institute 1973, 51, 5, 1669 - 1676).
Le composé à tester est administré par voie orale a des souris femelles de souche OF₁ trois jours avant immunisation.
Les résultats sont exprimés en pourcentage d'augmentation du coussinet plantaire.

NC(=O)CSC(c1ccc(F)cc1)c1ccc(F)cc1 [CRL 41 334, 2-(4,4ʹ-difluorobenzhydrylthio)acétamide]
motilité spontanée (souris [1]; souris, 128 mg/kg, 30 minutes avant passage dans l'actimètre): cet effet n'apparaît plus
motilité spontanée (souris [1]; souris, 8, mais surtout 32 et 128 mg/kg, 2 heures avant passage dans l'actimètre): augmentation de la motilité spontanée
motilité spontanée (souris [1]; souris, 32 et 64 mg/kg, 30 minutes avant passage dans l'actimètre): augmentation de la motilité
effets convulsivants de l'électrochoc (souris [2]): s'oppose faiblement aux effets convulsivants
effets létaux de l'électrochoc (souris [2]): sans modifier les effets létaux
durée de l'immobilité (souris [3]): diminue la durée de l'immobilité
symptômes (souris [4]; 128 mg/kg i.p.): sédation, puis excitation 2 heures après
symptômes (souris [4]; 256 mg/kg i.p.): sédation suivie d'excitation 2 heures après l'injection
convulsions (souris [4]; 256 mg/kg i.p., à 15 minutes): 3/3
symptômes (souris [4]; 512 mg/kg i.p.): démarche titubante
convulsions (souris [4]; 512 mg/kg i.p., pendant les 10 premières minutes): 3/3
mortalité (souris [4]; 512 mg/kg i.p., 1/3 en 15 minutes et 2/3 en 24 heures): 3/3
durée des stéréotypies (rat; 128 mg/kg): > 420 min
stéréotypies atteignent leur maximum (rat; 128 mg/kg): 120 to 150 min
intensité des stéréotypies (rat; 64 et 128 mg/kg, compared with amphétamine): comparable à celle obtenue respectivement avec 1 et 2 mg
comportement et réactivités (souris [5]; souris, 128 mg/kg i.p.): sédation pendant 30 minutes
Hypothermie (souris [5]; souris, 128 mg/kg i.p., à 30 minutes, durée 1 heure): -4,1 °
comportement et réactivités (souris [5]; souris, 2, 8 et 32 mg/kg i.p.): pas de modifications nettes du comportement et des réactivités
nombre de passages punis (souris [6]): ne modifie pas
Ind. Activité ([7]; Exp 1, 0,1 mg/kg): 1,15
% d'augmentation du coussinet (mm) m ([7]; Exp 1, 0,1 mg/kg): 10,6%
Ind. Activité ([7]; Exp 1, 1 mg/kg): 1,10
% d'augmentation du coussinet (mm) m ([7]; Exp 1, 1 mg/kg): 10,2%
Ind. Activité ([7]; Exp 1, 10 mg/kg): 1,29
% d'augmentation du coussinet (mm) m ([7]; Exp 1, 10 mg/kg): 12,0%
Ind. Activité ([7]; Exp 1, 100 mg/kg): 1,59
% d'augmentation du coussinet (mm) m ([7]; Exp 1, 100 mg/kg): 14,7^x %
Ind. Activité ([7]; Exp 2, 0,1 mg/kg): 1,31
% d'augmentation du coussinet (mm) m ([7]; Exp 2, 0,1 mg/kg): 11,0%
Ind. Activité ([7]; Exp 2, 1 mg/kg): 1,25
% d'augmentation du coussinet (mm) m ([7]; Exp 2, 1 mg/kg): 10,5%
Ind. Activité ([7]; Exp 2, 10 mg/kg): 1,34
% d'augmentation du coussinet (mm) m ([7]; Exp 2, 10 mg/kg): 11,2%
Ind. Activité ([7]; Exp 2, 100 mg/kg): 1,56
% d'augmentation du coussinet (mm) m ([7]; Exp 2, 100 mg/kg): 13,1%
action immunostimulante ([7]; overall statement in the text): une action immunostimulante
